# Tests used:
# [1] = Plasma protein binding (free fraction), human plasma
# Procedure: (§1) Pharmacokinetic analyses were performed at F. Hoffmann-La Roche as described in supporting Materials and Methods S1.
# [2] = Stability in human plasma
# Procedure: as §1
# [3] = Plasma and brain exposure at the end of the LMA experiment; type: in vivo, rat; settings: 35 min
# Procedure: (§2) Locomotor activity (LMA) was evaluated at F. Hoffmann-La Roche as described previously. Male Wistar rats were placed for 2 weeks in a 12 h light/12 h dark cycle with light onset at 22∶00 (ZT0). […] Spontaneous LMA was recorded for a period of 30 min. At the end of the experiment, the brain and plasma were collected for determination of the drug exposure and brain/plasma concentration ratio.
# The plasma and brain exposure of SB-334867 were measured at the end of the LMA experiment.
# NE transporter (h) = molecular target: T1, NE transporter (h) (Homo sapiens, UniProt P23975); experiment: CEREP radioligand binding; settings: % of control specific binding
# T1 construct: purchased CEREP
# Procedure: (§3) SB-334867 was evaluated in a selectivity screen performed at CEREP (Paris, France). The screen consisted of binding assays on a panel of 79 target receptors. The specific binding (SB) of a radioligand to each target receptor was defined as the difference between the total binding and the nonspecific binding determined in the presence of a cold competitor in excess. […] Details on the CEREP screen are available from www.cerep.fr.
# beta 2 (h) = molecular target: T2, beta 2 (h) (Homo sapiens, UniProt P07550); experiment: CEREP radioligand binding; settings: % of control specific binding
# T2 construct: purchased CEREP
# Procedure: as §3
# Cl- channel = experiment: CEREP radioligand binding; settings: % of control specific binding
# Procedure: as §3
# NK3 (h) = molecular target: T3, NK3 (h) (Homo sapiens, UniProt P29371); experiment: CEREP radioligand binding; settings: % of control specific binding
# T3 construct: purchased CEREP
# Procedure: as §3
# GABA (non-selective) = experiment: CEREP radioligand binding; settings: % of control specific binding
# Procedure: as §3
# PDGF = experiment: CEREP radioligand binding; settings: % of control specific binding
# Procedure: as §3
# V1a (h) = molecular target: T4, V1a (h) (Homo sapiens, UniProt P37288); experiment: CEREP radioligand binding; settings: % of control specific binding
# T4 construct: purchased CEREP
# Procedure: as §3
# beta 1 (h) = molecular target: T5, beta 1 (h) (Homo sapiens, UniProt P08588); experiment: CEREP radioligand binding; settings: % of control specific binding
# T5 construct: purchased CEREP
# Procedure: as §3
# DA transporter (h) = molecular target: T6, DA transporter (h) (Homo sapiens, UniProt Q01959); experiment: CEREP radioligand binding; settings: % of control specific binding
# T6 construct: purchased CEREP
# Procedure: as §3
# MT1 (h) = molecular target: T7, MT1 (h) (Homo sapiens, UniProt P48039); experiment: CEREP radioligand binding; settings: % of control specific binding
# T7 construct: purchased CEREP
# Procedure: as §3
# PACAP (h) (PAC1) = molecular target: T8, PACAP (h) (PAC1) (Homo sapiens, UniProt P41586); experiment: CEREP radioligand binding; settings: % of control specific binding
# T8 construct: purchased CEREP
# Procedure: as §3
# Y2 (h) = molecular target: T9, Y2 (h) (Homo sapiens, UniProt P49146); experiment: CEREP radioligand binding; settings: % of control specific binding
# T9 construct: purchased CEREP
# Procedure: as §3
# GAL2 (h) = molecular target: T10, GAL2 (h) (Homo sapiens, UniProt O43603); experiment: CEREP radioligand binding; settings: % of control specific binding
# T10 construct: purchased CEREP
# Procedure: as §3
# M1 (h) = molecular target: T11, M1 (h) (Homo sapiens, UniProt P11229); experiment: CEREP radioligand binding; settings: % of control specific binding
# T11 construct: purchased CEREP
# Procedure: as §3
# 5-HT3 (h) = molecular target: T12, 5-HT3 (h) (Homo sapiens, UniProt P46098); experiment: CEREP radioligand binding; settings: % of control specific binding
# T12 construct: purchased CEREP
# Procedure: as §3
# CCR1 (h) = molecular target: T13, CCR1 (h) (Homo sapiens, UniProt P32246); experiment: CEREP radioligand binding; settings: % of control specific binding
# T13 construct: purchased CEREP
# Procedure: as §3
# SK+Ca channel = experiment: CEREP radioligand binding; settings: % of control specific binding
# Procedure: as §3
# Na+ channel (site 2) = experiment: CEREP radioligand binding; settings: % of control specific binding
# Procedure: as §3
# [4] = molecular target: T14, mu (h) (MOP) (agonist site) (Homo sapiens, UniProt P35372); experiment: CEREP radioligand binding; settings: % of control specific binding
# T14 construct: purchased CEREP
# Procedure: as §3
# Y1 (h) = molecular target: T15, Y1 (h) (Homo sapiens, UniProt P25929); experiment: CEREP radioligand binding; settings: % of control specific binding
# T15 construct: purchased CEREP
# Procedure: as §3
# 5-HT2C (h) = molecular target: T16, 5-HT2C (h) (Homo sapiens, UniProt P28335); experiment: CEREP radioligand binding
# T16 construct: purchased CEREP
# Procedure: as §3
# VIP1 (h) (VPAC1) = molecular target: T17, VIP1 (h) (VPAC1) (Homo sapiens, UniProt P32241); experiment: CEREP radioligand binding; settings: % of control specific binding
# T17 construct: purchased CEREP
# Procedure: as §3
# 5-HT2A (h) = molecular target: T18, 5-HT2A (h) (Homo sapiens, UniProt P28223); experiment: CEREP radioligand binding; settings: % of control specific binding
# T18 construct: purchased CEREP
# Procedure: as §3
# alpha 2 (non-selective) = experiment: CEREP radioligand binding; settings: % of control specific binding
# Procedure: as §3
# H2 (h) = molecular target: T19, H2 (h) (Homo sapiens, UniProt P25021); experiment: CEREP radioligand binding; settings: % of control specific binding
# T19 construct: purchased CEREP
# Procedure: as §3
# [5] = Pharmacokinetics after single i.v. or p.o. bolus in Wistar rat
# Procedure: as §1
# (§4) Cmax, maximum concentration; Tmax, time at which maximum concentration was observed; AUC, area under the plasma concentration vs. time curve; CL, clearance; Vss, volume of distribution at steady state; T1/2, terminal half-life; F, bioavailability; Fu, Fraction unbound. Plasma values are mean, n=2.
# Male Wistar rats = experiment: Spontaneous locomotor activity during the active phase; type: in vivo, rat; settings: for spontaneous LMA: vehicle 6097±536; for effect on spontaneous LMA (in words): 3, 10, 30 mg/kg ip at ZT15, almorexant significant only at 30 mg/kg, SB-334867 at 10 and 30 mg/kg
# Procedure: as §2
# Horizontal locomotor activity was recorded for a period of 30 min. Numbers on the X-axes represent intraperitoneal doses in mg/kg.***p<0.001, **p<0.01, *p<0.05 vs. Veh (one-way ANOVA followed by Dunnett’s analysis). All data are mean±SEM (n = 8 per group).
# Stability in rat plasma = experiment: Stability in rat plasma
# Procedure: as §1
# [6] = Plasma protein binding (free fraction), rat plasma
# Procedure: as §1, §4
# [7] = i.v., dose 2.40 / 5.18 / 12.10 mg/kg
# [8] = p.o., dose 6.35 / 8.75 / 18.16 mg/kg
# T16 sequence (P28335 33-458): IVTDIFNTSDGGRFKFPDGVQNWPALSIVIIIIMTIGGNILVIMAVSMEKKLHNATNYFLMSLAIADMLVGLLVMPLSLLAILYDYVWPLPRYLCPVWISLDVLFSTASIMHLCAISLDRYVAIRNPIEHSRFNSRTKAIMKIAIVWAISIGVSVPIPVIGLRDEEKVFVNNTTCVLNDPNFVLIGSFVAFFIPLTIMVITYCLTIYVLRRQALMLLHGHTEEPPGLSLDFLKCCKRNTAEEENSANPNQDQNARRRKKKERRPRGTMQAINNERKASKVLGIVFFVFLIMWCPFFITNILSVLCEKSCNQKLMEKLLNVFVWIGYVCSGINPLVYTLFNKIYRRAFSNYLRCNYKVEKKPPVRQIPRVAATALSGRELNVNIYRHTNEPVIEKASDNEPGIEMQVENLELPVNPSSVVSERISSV
# T17 sequence (P32241 31-457): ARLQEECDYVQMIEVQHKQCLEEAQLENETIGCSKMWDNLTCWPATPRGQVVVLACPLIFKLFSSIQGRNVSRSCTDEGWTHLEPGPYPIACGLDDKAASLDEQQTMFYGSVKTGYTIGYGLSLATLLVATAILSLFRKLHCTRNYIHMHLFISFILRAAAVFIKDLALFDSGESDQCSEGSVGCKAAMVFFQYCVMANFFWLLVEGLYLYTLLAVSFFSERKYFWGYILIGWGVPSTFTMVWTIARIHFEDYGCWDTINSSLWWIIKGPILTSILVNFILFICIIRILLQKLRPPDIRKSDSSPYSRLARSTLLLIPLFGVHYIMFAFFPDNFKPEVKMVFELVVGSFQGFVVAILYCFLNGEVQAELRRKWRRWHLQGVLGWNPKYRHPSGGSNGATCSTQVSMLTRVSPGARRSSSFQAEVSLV
# T5 sequence (P08588 whole entry): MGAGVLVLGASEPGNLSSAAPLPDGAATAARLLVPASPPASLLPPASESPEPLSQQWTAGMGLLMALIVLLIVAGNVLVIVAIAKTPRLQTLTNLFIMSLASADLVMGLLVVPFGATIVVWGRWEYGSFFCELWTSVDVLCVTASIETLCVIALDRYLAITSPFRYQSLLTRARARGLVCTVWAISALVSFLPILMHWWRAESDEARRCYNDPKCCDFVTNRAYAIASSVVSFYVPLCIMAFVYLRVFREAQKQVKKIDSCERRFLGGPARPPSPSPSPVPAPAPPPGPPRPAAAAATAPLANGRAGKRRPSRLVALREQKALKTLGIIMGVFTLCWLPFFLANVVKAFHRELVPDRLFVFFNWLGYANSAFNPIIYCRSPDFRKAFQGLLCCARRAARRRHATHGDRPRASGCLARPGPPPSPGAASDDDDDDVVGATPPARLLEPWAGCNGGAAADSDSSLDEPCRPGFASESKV
# T14 sequence (P35372 whole entry): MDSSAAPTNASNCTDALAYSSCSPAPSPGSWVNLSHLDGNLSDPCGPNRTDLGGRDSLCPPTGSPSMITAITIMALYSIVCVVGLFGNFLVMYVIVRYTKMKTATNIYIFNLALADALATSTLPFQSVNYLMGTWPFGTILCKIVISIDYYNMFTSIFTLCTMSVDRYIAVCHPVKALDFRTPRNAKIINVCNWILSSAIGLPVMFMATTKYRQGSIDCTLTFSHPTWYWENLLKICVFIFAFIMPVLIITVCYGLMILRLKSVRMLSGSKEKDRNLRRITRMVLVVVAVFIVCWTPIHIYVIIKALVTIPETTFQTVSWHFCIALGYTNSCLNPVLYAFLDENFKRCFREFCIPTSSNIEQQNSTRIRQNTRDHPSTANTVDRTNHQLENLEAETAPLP
# T2 sequence (P07550 whole entry): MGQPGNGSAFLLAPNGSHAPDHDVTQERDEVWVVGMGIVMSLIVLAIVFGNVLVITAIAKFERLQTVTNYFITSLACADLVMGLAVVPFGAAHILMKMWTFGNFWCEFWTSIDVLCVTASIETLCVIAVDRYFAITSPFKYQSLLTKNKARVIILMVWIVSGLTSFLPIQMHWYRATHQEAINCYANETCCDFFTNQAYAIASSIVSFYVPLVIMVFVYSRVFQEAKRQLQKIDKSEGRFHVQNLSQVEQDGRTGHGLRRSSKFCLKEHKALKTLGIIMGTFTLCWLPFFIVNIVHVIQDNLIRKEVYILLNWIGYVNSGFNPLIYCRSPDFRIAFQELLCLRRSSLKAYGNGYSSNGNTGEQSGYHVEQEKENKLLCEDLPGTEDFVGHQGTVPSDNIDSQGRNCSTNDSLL
# T15 sequence (P25929 whole entry): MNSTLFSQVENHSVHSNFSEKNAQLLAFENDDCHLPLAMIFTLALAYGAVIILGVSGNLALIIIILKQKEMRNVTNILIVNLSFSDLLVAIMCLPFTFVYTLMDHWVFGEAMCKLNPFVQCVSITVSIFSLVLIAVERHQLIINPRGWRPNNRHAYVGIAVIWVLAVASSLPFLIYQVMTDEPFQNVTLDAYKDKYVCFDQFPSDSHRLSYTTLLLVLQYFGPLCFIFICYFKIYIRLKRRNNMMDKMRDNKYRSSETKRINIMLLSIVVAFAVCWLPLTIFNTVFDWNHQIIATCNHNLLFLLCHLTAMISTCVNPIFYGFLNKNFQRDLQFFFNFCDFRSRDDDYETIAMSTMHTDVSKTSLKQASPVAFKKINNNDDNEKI
# T9 sequence (P49146 whole entry): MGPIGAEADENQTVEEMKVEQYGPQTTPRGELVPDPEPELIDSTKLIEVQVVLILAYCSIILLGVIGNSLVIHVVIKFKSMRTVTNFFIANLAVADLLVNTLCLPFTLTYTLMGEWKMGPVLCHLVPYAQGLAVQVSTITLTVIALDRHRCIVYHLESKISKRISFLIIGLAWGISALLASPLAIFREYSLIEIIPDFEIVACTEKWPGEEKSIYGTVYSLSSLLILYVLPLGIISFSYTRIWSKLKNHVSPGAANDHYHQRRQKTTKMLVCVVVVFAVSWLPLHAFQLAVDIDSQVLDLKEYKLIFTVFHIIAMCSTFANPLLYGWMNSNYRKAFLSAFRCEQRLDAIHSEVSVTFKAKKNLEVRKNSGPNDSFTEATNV
# T10 sequence (O43603 whole entry): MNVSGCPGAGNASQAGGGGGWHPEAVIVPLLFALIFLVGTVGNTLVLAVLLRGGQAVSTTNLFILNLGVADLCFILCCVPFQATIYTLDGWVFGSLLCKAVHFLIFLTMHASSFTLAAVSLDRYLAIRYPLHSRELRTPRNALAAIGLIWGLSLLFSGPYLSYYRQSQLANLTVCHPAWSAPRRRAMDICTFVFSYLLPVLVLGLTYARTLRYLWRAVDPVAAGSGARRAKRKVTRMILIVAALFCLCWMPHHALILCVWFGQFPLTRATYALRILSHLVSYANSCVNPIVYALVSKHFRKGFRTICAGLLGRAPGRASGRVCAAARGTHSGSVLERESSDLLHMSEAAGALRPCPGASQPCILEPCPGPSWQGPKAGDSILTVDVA
# T12 sequence (P46098 24-478): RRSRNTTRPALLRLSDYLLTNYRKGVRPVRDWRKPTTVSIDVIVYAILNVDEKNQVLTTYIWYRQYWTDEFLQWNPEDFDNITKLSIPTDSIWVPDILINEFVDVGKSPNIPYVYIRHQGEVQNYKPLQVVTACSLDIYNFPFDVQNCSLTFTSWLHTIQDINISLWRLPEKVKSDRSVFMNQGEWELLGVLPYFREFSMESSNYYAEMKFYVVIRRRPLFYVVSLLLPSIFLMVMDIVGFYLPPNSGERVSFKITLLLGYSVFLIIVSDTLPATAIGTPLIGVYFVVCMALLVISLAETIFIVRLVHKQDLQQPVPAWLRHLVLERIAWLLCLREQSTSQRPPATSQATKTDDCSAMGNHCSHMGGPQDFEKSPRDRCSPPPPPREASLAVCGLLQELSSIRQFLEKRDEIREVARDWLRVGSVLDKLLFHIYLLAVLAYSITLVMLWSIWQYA
# T1 sequence (P23975 whole entry): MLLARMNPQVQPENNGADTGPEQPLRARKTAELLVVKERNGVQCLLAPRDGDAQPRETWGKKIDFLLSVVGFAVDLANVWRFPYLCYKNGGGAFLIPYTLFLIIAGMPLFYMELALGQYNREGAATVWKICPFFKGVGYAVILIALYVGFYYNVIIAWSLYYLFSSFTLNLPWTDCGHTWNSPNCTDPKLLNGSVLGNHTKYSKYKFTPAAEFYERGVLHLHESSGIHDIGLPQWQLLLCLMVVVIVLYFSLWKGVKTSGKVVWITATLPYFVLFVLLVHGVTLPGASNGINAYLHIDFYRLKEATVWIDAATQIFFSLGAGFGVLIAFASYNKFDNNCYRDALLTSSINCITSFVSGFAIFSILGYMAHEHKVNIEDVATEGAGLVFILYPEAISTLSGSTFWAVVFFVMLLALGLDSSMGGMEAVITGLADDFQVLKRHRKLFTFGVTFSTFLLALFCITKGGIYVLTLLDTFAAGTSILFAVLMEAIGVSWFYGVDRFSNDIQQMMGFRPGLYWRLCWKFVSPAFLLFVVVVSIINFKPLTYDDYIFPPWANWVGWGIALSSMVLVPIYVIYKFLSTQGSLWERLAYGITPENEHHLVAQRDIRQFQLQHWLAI
# T18 sequence (P28223 whole entry): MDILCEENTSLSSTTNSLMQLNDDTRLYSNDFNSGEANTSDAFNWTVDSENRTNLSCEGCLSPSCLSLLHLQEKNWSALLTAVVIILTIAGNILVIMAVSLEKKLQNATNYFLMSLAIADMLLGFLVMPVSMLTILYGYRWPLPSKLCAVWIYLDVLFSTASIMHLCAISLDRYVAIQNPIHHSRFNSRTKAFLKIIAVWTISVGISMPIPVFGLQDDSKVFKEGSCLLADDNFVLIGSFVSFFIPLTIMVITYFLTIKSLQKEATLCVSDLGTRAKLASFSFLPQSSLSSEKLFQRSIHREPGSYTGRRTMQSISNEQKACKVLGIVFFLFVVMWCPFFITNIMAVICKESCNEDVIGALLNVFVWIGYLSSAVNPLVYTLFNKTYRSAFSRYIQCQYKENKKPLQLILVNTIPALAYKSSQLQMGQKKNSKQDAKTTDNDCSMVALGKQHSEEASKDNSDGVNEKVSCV
smiles,measurement,setting,value
"Cc1nc2ccc(NC(=O)Nc3ccnc4cccnc34)cc2o1.Cl [SB-334867, 1-(2-methylbenzoxazol-6-yl)-3-[1], [5]naphthyridin-4-yl-urea hydrochloride]",free fraction,[1],1.3%
same,stability in plasma,[2]; 1 h,95%
same,stability in plasma,[2]; 4 h,93%
same,brain level,[3]; 3 mg/kg ip,48 ng/mL
same,plasma level,[3]; 3 mg/kg ip,220 ng/mL
same,brain level,[3]; 10 mg/kg ip,171 ng/mL
same,plasma level,[3]; 10 mg/kg ip,718 ng/mL
same,brain level,[3]; 30 mg/kg ip,142 ng/mL
same,plasma level,[3]; 30 mg/kg ip,738 ng/mL
same,% Control (10 µM) Mean SB,NE transporter (h),49.4%
same,% Control (10 µM) Mean SB,beta 2 (h),94.6%
same,% Control (10 µM) Mean SB,Cl- channel,90.6%
same,% Control (10 µM) Mean SB,NK3 (h),86.3%
same,% Control (10 µM) Mean SB,GABA (non-selective),105.5%
same,% Control (10 µM) Mean SB,PDGF,102.6%
same,% Control (10 µM) Mean SB,V1a (h),106.1%
same,% Control (10 µM) Mean SB,beta 1 (h),85.7%
same,% Control (10 µM) Mean SB,DA transporter (h),72.4%
same,% Control (10 µM) Mean SB,MT1 (h),102.4%
same,% Control (10 µM) Mean SB,PACAP (h) (PAC1),107.7%
same,% Control (10 µM) Mean SB,Y2 (h),113%
same,% Control (10 µM) Mean SB,GAL2 (h),97.3%
same,% Control (10 µM) Mean SB,M1 (h),103.6%
same,% Control (10 µM) Mean SB,5-HT3 (h),93.9%
same,% Control (10 µM) Mean SB,CCR1 (h),94.5%
same,% Control (10 µM) Mean SB,SK+Ca channel,114.4%
same,% Control (10 µM) Mean SB,Na+ channel (site 2),62.8%
same,% Control (10 µM) Mean SB,[4],86.3%
same,% Control (10 µM) Mean SB,Y1 (h),102.7%
same,displacement of specific binding,"5-HT2C (h); 10 µM, 5HT2C (serotonin 2C)",70%
same,% Control (10 µM) Mean SB,5-HT2C (h); % of control specific binding,30.4%
same,% Control (10 µM) Mean SB,VIP1 (h) (VPAC1),101%
same,% Control (10 µM) Mean SB,5-HT2A (h),89.5%
same,% Control (10 µM) Mean SB,alpha 2 (non-selective),96.1%
same,% Control (10 µM) Mean SB,H2 (h),86.6%
same,CL,[5]; i.v.,5.40 mL/min/kg
same,Vss,[5]; i.v.,0.57 L/kg
same,AUC/Dose,[5]; [7],3118.90 ng/h/mL
same,T1/2 (terminal half-life),[5]; [7],1.21 h
same,Tmax,[5]; [7],0.00 h
same,Cmax/Dose,"[5]; i.v., dose almorexant 2.40, SB-334867 5.18, SB-408124 12.10 mg/kg",1937.40 ng/mL
same,F (bioavailability),[5]; p.o.,45.70%
same,AUC/Dose,[5]; [8],1423.50 ng/h/mL
same,T1/2 (terminal half-life),[5]; [8],3.10 h
same,Tmax,[5]; [8],1.50 h
same,Cmax/Dose,"[5]; p.o., dose almorexant 6.35, SB-334867 8.75, SB-408124 18.16 mg/kg",331.10 ng/mL
same,Vss (in words),[5]; rat,medium
same,oral bioavailability (in words),[5]; rat,medium
same,systemic plasma clearance (in words),[5]; rat,low
same,spontaneous LMA,"Male Wistar rats; 10 mg/kg ip at ZT15, 30 min recording",3509±383
same,spontaneous LMA,"Male Wistar rats; 30 mg/kg ip at ZT15, 30 min recording",2626±341
same,effect on spontaneous LMA (in words),Male Wistar rats,dose-dependently reduced spontaneous LMA
same,stability in plasma,Stability in rat plasma; 1 h,104%
same,stability in plasma,Stability in rat plasma; 4 h,110%
same,Fu (fraction unbound / free fraction),[6],0.8%
"CNC(=O)[C@@H](c1ccccc1)N1CCc2cc(OC)c(OC)cc2[C@@H]1CCc1ccc(C(F)(F)F)cc1 [almorexant, (2R)-2-[(1S)-6,7-Dimethoxy-1-[2-(4-trifluoromethyl-phenyl)-ethyl]-3,4-dihydro-1H-isoquinolin-2-yl]-N-methyl-2-phenyl-acetamide]",fraction unbound,"[1]; human, plasma",< 0.037
same,stability in plasma,[2]; 2 h,90.0%
same,AUC/Dose,"[5]; Wistar, rat, in vivo, iv",193.70 ng/h/mL
same,Tmax,"[5]; Wistar, rat, in vivo, iv",0 h
same,Vd,"[5]; Wistar, rat, in vivo, iv",9.45 L/kg
same,clearance,"[5]; Wistar, rat, in vivo, iv",87.1 mL/min/kg
same,half-life,"[5]; Wistar, rat, in vivo, iv",2.58 h
same,Cmax/Dose,"[5]; Wistar, rat, in vivo, iv, 12.1 mg/kg",238.20 ng/mL
same,AUC/Dose,"[5]; Wistar, rat, in vivo, po",28.00 ng/h/mL
same,Tmax,"[5]; Wistar, rat, in vivo, po",0.5 h
same,bioavailability,"[5]; Wistar, rat, in vivo, po",14.4%
same,half-life,"[5]; Wistar, rat, in vivo, po",1.29 h
same,Cmax/Dose,"[5]; Wistar, rat, in vivo, po, 18.16 mg/kg",12.90 ng/mL
same,Vss (in words),"[5]; rat, in vivo",high
same,systemic plasma clearance (in words),"[5]; rat, in vivo",high
same,oral bioavailability (in words),"[5]; rat, in vivo, po",low
same,effect on spontaneous LMA (in words),Male Wistar rats,dose-dependently reduced LMA
same,stability in plasma,Stability in rat plasma; 2 h,95.0%
same,fraction unbound,"[6]; rat, plasma",< 0.087

# Source: paper PMC3388080 (PLoS ONE, 2012)
